# “And” between values parts separate entries of the source, which are not always exact repeats. Identical values can stand only once.
# Key:
# [1] = target: T1, human PYCR1 (Homo sapiens, UniProt P32322); assay: In crystallo screening: electron density as readout for binding (crystal soaking); design: includes residues 1–300 of the full-length 319-residue enzyme; inferred from the Ni-NTA purification; made in house; host or cells: Escherichia coli BL21 (DE3); conditions: apo crystals soaked with 25–500 mM of the proline analog
# T1 sequence (P32322 1-300): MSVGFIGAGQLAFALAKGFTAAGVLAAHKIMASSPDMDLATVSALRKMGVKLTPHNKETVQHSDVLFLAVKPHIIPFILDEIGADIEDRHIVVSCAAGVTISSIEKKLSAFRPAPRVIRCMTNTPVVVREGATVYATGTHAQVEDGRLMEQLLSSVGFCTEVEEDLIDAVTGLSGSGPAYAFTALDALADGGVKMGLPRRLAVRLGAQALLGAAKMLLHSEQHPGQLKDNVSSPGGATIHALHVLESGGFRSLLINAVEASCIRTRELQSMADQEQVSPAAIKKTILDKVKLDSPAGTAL
# Experimental: (§1) Over two dozen proline analogs (Fig. 2) were screened using electron density from X-ray crystallography as the readout for binding to human PYCR1. […] Because the compounds bind in the P5C/proline site, the mechanism of inhibition was assumed to be competitive with P5C. Therefore, steady-state kinetic measurements were performed with L-P5C as the variable substrate (0-1000 μM) and NADH fixed (175 μM) (Fig. 3). For each compound, the data were fit globally to a competitive inhibition model (Equation 1) to obtain an inhibition constant, Ki.
# 06594), D,L-thiazolidine-2-carboxylate (Sigma-Aldrich no. 467995), L-thiazolidine-4-carboxylate (Sigma-Aldrich no. T27502), 1,3-thiazolidine-2,4-dicarboxylate (Sigma-Aldrich no. CDS000186), dimethyl 1,3-thiazolidine-2,4-dicarboxylate (Sigma-Aldrich no. […] 287067), L-4-hydroxyproline methyl ester (hydrochloride) (Sigma-Aldrich no. 30681), cis-4-hydroxy-D-proline methyl ester (hydrochloride) (Sigma-Aldrich no. […] 441562), L-(+)-mandelic acid (Sigma-Aldrich no. 63460), sodium-L-lactate (Sigma-Aldrich no. 71718), D-cycloserine (Sigma-Aldrich no. C6880). The proline analogs were added to apo crystals during cryoprotection by soaking the crystals in the reservoir solution supplemented with cryoprotectant (PEG 200 for the PEG 3350 form; glycerol for the NaCl form) and then in the same cryobuffer supplemented with 25–500 mM of the proline analog. Following equilibration, the crystals were harvested and rapidly plunged into liquid nitrogen.
# The complex of PYCR1 with THFA was obtained by soaking a C2 crystal (NaCl form) for 15 min in a cryo-buffer consisting of the reservoir solution (3 M NaCl and 0.1 M HEPES at pH 7.5–8.0) supplemented with 30% glycerol and 50 mM THFA, followed by flash-cooling in liquid nitrogen. Crystals of the NFLP complex were prepared by soaking P2_12_12 crystals in the reservoir solution (250 mM Li2SO4, 19% (w/v) PEG 3350, 0.1 M HEPES, pH 7.5) supplemented with 20% (v/v) PEG 200 and 100 mM NFLP. The complexes with L-T2C and L-T4C were prepared similarly, except the Li2SO4 concentration was reduced to 25 mM and 50 mM of either L-T4C or D,L-T2C was included.
# [2] = target: T1, human PYCR1; assay: biochemical; conditions: for Ki: competitive with P5C, NADH fixed 175 μM
# Experimental: as §1
# B, THFA. C, CPC. D, T4C. E, T2C. F, NFLP. The data were measured in 50 mM Tris (pH 7.5) with 1 mM EDTA disodium salt while holding NADH fixed at 175 μM and varying D,L-P5C (0–2000 μM). The concentration of the substrate L-P5C was considered to be half the total D,L-P5C concentration added to the assays. Curves represent global fits of the data to a competitive inhibition model showing initial velocity in units of µM [NAD^+] s^−1 as a function of L-P5C concentration (µM).
# A C-terminal truncation variant of human PYCR1, which includes residues 1–300 of the full-length 319-residue enzyme, was used for kinetics and X-ray crystallography ([18]). PYCR1 was overexpressed in Escherichia coli BL21 (DE3) competent cells and purified using methods similar to those previously reported ([18]). Harvested cells were lysed via sonication in a mixture containing DNase I, lysozyme, and 0.2 mM phenylmethylsulfonyl fluoride protease inhibitor, and then the insoluble material was removed via centrifugation at 16,000 rpm for 1 h at 4°C. The resulting lysate was purified by gravity-flow chromatography on a column containing Ni^2+–nitrilotriacetic acid resin (Qiagen) pre-equilibrated with binding buffer consisting of 50 mM HEPES, 300 mM NaCl, 10 mM imidazole, and 5% (w/v) glycerol at pH 7.8 (buffer A). The column was washed with buffer A supplemented with 30 mM imidazole, and then the bound protein was eluted with buffer A supplemented with 300 mM imidazole. Elution fractions containing PYCR1 were identified by SDS-PAGE and prepared for further purification by size-exclusion chromatography by dialyzing into 300 mM NaCl, 2% (w/v) glycerol, and 50 mM HEPES at pH 7.5. Size-exclusion chromatography was performed on a HiLoad 16/600 Superdex 200 column equilibrated with 50 mM HEPES, pH 7.8, 300 mM NaCl, and 5% (w/v) glycerol. Purified PYCR1 was concentrated to 8 mg/ml and stored at 4°C for subsequent crystallization trials.
# Kinetic measurements were performed in a BioTek Epoch 2 microplate spectrophotometer using Corning 96-well UV-transparent microplates. Activity assays were performed by monitoring the consumption of NADH at 340 nm (ε340 = 6220 M^−1 cm^−1) using P5C as the substrate. D,L-P5C was synthesized as described previously ([45]), quantified using o-aminobenzaldehyde (o-AB), and stored in 1 M HCl at 4°C. Neutralization of D,L-P5C to pH 7.5 was performed immediately prior to assays using 1 M Tris (pH 7.5) and 6 M NaOH. The concentration of the substrate L-P5C was assumed to be half the total D,L-P5C concentration added to the assays.
# The following microplate protocol was employed. Substrate mixtures containing P5C, NADH, EDTA, and Tris buffer were prepared in a deep well block for each P5C concentration. Mixtures containing enzyme and various concentrations of the inhibitor were prepared in microcentrifuge tubes and incubated on ice in buffer containing 50 mM HEPES pH 7.8, 300 mM NaCl, and 5% (w/v) glycerol. The final concentration of PYCR1 in the assay was 6.25 nM. Twenty μl of the enzyme-analog mixture was added to microplate wells using a single-channel pipette, and then the reaction was initiated by addition of 180 μl of the substrate mixtures using a multi-channel pipettor. The reaction traces were followed for 35 min.
# [3] = test system: MCF10A hRAS^V12 spheroids; assay: Intracellular proline abundance in spheroids (GC-MS); type: cell-based; conditions: 5 mM, 5 days
smiles,measurement,setting,value
"O=CN1CCC[C@H]1C(=O)O [NFLP, N-formyl L-proline]",electron density evidence for binding (in words),[1],Electron density evidence for binding was observed
same,Ki,"[2]; Ki (estimated), rounded values",100 µM and ~100 µM
same,Ki,"[2]; Ki, 50 mM Tris pH 7.5, global fit",99 ± 7.7 µM
same,binding free energy equivalent of the affinity increase,[2]; NFLP relative to proline,~7.11 kJ/mol
same,increase in affinity by addition of the formyl group to proline,[2]; NFLP relative to proline,17 fold
same,kcat,"[2]; kcat for L-P5C at fixed NADH 175 μM, global fit of the data set with this analog",52 ± 2 s⁻¹
same,increase of intracellular proline abundance compared with THFA,[3],about 10 fold
same,increase of intracellular proline abundance compared with control,[3],~40 fold

# Source: publication PMC7939384, “In crystallo screening for proline analog inhibitors of the proline cycle enzyme PYCR1” (The Journal of Biological Chemistry, 2021)
